In US20030073850A1, “4-Imidazole derivatives of benzyl and restricted benzyl sulfonamides, sulfamides, ureas, carbamates, and amides and their use” (priority 1998, published 2003):

Assays:
[1] = biological target: T1, α1B (rat spleen) (Rattus norvegicus, UniProt P15823); test: Agonist tissue response, contraction of rat spleen; format: biochemical; conditions: read-out: Agonist Tissue Response (pD2) α1B (rat spleen) (converted)
T1 construct: α1B (rat spleen) and α1D (rat aorta) receptors; from tissue; host or cells: rat spleen
T1 sequence (P15823 1-515): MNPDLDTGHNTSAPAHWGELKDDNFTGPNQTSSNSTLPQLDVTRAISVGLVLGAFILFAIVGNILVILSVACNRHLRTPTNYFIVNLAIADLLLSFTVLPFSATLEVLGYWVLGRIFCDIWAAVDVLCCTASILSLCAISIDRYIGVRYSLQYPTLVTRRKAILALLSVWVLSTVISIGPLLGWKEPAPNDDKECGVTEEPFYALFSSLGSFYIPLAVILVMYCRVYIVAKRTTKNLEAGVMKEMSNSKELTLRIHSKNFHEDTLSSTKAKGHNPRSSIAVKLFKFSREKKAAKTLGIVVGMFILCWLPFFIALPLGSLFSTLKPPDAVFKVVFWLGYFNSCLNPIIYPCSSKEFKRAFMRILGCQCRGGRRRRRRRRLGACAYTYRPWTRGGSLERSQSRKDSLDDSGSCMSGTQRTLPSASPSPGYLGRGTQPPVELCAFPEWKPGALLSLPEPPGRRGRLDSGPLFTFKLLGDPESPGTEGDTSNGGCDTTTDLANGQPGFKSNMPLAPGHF

[2] = biological target: T2, α1d (rat receptor expressed in mouse fibroblasts) (Rattus norvegicus, UniProt P23944); test: Radioligand binding, [3H]-prazosin, α1d; conditions: rat receptor expressed in mouse fibroblasts, [3H]-prazosin; read-out: Radioligand Binding Ki α1d (Rat)
T2 construct: expressed in transfected cells; host or cells: mouse fibroblasts
T2 sequence (P23944 1-561): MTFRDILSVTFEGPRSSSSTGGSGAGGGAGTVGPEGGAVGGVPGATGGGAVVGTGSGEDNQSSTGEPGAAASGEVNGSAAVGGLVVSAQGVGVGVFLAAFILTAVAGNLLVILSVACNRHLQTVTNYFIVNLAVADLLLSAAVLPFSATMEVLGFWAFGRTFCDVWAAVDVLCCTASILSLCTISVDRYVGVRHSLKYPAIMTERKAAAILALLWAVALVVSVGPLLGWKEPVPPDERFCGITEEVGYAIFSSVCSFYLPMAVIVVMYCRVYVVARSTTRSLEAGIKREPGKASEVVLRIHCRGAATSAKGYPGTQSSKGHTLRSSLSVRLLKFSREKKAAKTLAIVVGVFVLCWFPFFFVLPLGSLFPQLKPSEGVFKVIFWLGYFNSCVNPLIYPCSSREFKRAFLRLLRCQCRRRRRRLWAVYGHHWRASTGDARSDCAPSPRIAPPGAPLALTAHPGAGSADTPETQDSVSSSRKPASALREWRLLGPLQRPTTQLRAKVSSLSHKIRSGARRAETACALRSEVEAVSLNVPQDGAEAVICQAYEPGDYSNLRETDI
In short: (§1)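 [3H]-prazosin radioligand displacement; α1A from rat submaxillary gland tissue, α1b hamster and α1d rat receptors each expressed in mouse fibroblasts.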

[3] = biological target: T3, α1A (rat submaxillary gland) (Rattus norvegicus, UniProt P43140); test: Radioligand binding, [3H]-prazosin, α1A
T3 construct: α1A (rat submaxillary gland); from tissue; host or cells: rat submaxillary gland
T3 sequence (P43140 1-466): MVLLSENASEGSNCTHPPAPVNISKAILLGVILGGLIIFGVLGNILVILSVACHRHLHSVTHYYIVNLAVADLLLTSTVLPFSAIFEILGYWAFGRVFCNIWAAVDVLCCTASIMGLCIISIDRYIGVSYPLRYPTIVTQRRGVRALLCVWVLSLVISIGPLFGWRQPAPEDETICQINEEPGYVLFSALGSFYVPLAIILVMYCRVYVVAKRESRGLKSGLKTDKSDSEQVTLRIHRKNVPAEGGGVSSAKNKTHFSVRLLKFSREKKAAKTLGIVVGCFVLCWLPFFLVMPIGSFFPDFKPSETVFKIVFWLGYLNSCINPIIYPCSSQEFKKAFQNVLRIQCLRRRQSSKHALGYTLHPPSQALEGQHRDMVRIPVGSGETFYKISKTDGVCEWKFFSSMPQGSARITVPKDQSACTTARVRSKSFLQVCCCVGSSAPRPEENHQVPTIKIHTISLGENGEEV
In short: as §1

[4] = system: anesthetized dogs; test: Intraurethral pressure (IUP) in anesthetized dogs; format: in vivo, dog
Description: Female Beagle dogs (Marshall Farms, North Rose, N.Y.) greater that 2 years of age and weighing between 12 and 15 kg were used in these studies. At least 2 weeks prior to any agonist dosing, dogs were instrumented for the chronic measurement of arterial blood pressure by implanting a telemetry transducer/transmitter (TA11PA-C40, Data Sciences International, St. Paul, Minn.) into a carotid artery.
On the test day, dogs fasted since the previous afternoon were pre-anesthetized with thiopental sodium 15 mg/kg i.v. (Pentothal™, Abbott) and intubated. Anesthesia was maintained by allowing the dog to spontaneously breathe a mixture of isoflurane (2.5 to 3 volume %) and oxygen delivered by a Narkomed Standard anesthesia system (North American Drager, Telford, Pa.). An Abbocath-T™ i.v. catheter (18-G, Abbott) was inserted into the cephalic vein for the administration of agonists. A telemetry receiver (RA1310, DataSciences) was placed under the head of each dog and was interfaced to a computerized data acquisition system (Modular Instruments Inc.(MI2), Malvern, Pa.) which allowed for the continuous calibrated recording of arterial blood pressure which was electronically filtered to determine its mean value (MAP).
Dogs with chronic telemetry implants anesthetized as described above were placed in dorsal recumbency and a balloon catheter was inserted into the urethral orifice and advanced approximately 15 cm until the tip was well inside the bladder. The balloon was then inflated with 1 ml of room air and the catheter slowly withdrawn until resistance (corresponding to the bladder neck) was evident. The balloon was then deflated and the catheter withdrawn additional 2 cm. The balloon was then reinflated and its catheter port connected to a Gould Statham P23Dd pressure transducer interfaced to a computerized data acquisition system (Modular Instruments, Inc., Malvern, Pa.) for the measurement of the intraurethral pressure. Increasing iv doses of test agonists were administered and the maximum effect of each dose on IUP was recorded. The effect of each dose was allowed to return to baseline before the next dose was given.
From the resulting dose response curve, an ED5 value, for the dose causing a maximum increase in IUP of 5 mm Hg, could be estimated. An ED20 value for the dose causing a maximum increase in MAP of 20 mm Hg could also be estimated. A selectivity ratio of MAP ED20 vs. IUP ED, was calculated.

CCS(=O)(=O)Nc1cccc2c1OCCC2c1c[nH]cn1 (single isomer, unassigned; (+)) [Example 95, (+) N-[4-(1H-imidazol-4-yl)-3,4-dihydro-2H-chromen-8-yl]ethanesulfonamide] was tested, and the EC50 [1] was 28.2 µM, the Ki [2] was 10 µM and the Ki [3] was 0.183 µM. For the same compound, the ED (5 mm Hg) ([4]; Canis lupus familiaris, iv dose causing a maximum increase in IUP of 5 mm Hg, anesthetized female Beagle dogs, read-out: Mean IUP ED5) was 0.113 µmol/kg and the “Mean Selectivity Ratio MAP ED20/IUP ED5” value ([4]; anesthetized dogs, iv) was 0.99.
